The values below come from patent US6489475B2, “Method of producing heterocyclic derivatives” (Sankyo Company, Limited, priority 1994, dated 2002).

Marks after values point to notes of the source that are not given here.

The subject of one assay is ACAT. Put plainly: ACAT inhibitory activity (small intestine mucosa microsomes, [1-14C]-oleoyl CoA, cholesteryl oleate production). It is filed as biochemical, rabbit. To be noted: concentration 10^-5M; inhibition of cholesteryl oleate production vs control. As to the method: A high cholesterol feed [a feed added with cholesterol (1%), Clea Japan, Inc.] was fed to male Japanese white rabbits weighing 2-2.5 kg at 100 g per day and the rabbits were bred for 4 weeks. The rabbits were killed by bleeding under anesthesia and small intestine was removed. The mucous membrane of small intestine was peeled, collected and homogenated. The homogenate was centrifuged at 4° C. and 10,000 rpm for 15 min. The obtained supernatant was further centrifuged at 4° C. and 41,000 rpm for 30 minutes to give microsomal fractions. Using this microsomal suspension as an enzyme sample, dimethyl sulfoxide (DMSO, 5 μl) or a test compound dissolved in DMSO (test compound solution, 5 μl), and a reaction substrate [1-^14C]-oleoyl CoA were added to a reaction buffer. After incubation at 37° C. for 5 minutes, a chloroform-methanol mixture was added to stop the reaction. Water was added thereto and mixed, and chloroform layer was separated. The solvent was evaporated to dryness, and the residue was dissolved in hexane. The mixture was subjected to thin layer chromatography using a silica gel plate. The spots of cholesteryl oleate on the silica gel plate were scraped, and quantitatively assayed on a liquid scintillation counter. The ACAT inhibitory activity of the test compound was expressed as a proportion (%) of inhibition of cholesteryl oleate, namely, the proportion of inhibition of cholesteryl oleate production as compared to control.

Another assay concerns Male Wister rats. In words: Serum total cholesterol reducing effect in rats on high cholesterol feed. It is filed as in vivo. To be noted: oral, once a day for 3 days, rat. How it is done:
Serum Total Cholesterol Reducing Effect
Male Wister rats weighing 180-200 g were bred under free access to a high cholesterol feed [added with cholesterol (1%), cholic acid (0.5%) and coconut oil (10%), Clea Japan, Inc.] for 3 days, during which period a test compound (10-100 mg/kg) suspended in 5% gum arabic solution was forcibly administered once a day orally for 3 days. Only 5% gum arabic solution was administered to control animals. After final administration, the test animals were fasted for 5 hours and the blood was taken. The serum total cholesterol level was determined using a commercially available assay kit (cholesterol-E-Test Wako, Wako Pure Chemical Industries, Ltd.). The activity of the test compound was expressed as a proportion (%) of reduction of serum total cholesterol level, namely, the proportion of reduction of serum total cholesterol as compared to control.

The test system of another assay is LDL. Put plainly: LDL peroxidation inhibitory effect (copper sulfate, malondialdehyde by thiobarbituric acid method). It is filed as biochemical, rabbit. To be noted: concentration 10^-5M; 37°C, 24 hours; malondialdehyde production inhibitory ratio. How it is done:
LDL Peroxidation Inhibitory Effect
Male Japanese white rabbits weighing 2-2.5 kg were bred on 100 g per day of a high cholesterol feed [added with cholesterol (1%), Clea Japan, Inc.] for 4 weeks. The blood was taken from carotid and plasma was obtained. Then, LDL was fractionated from the plasma by ultracentrifugation, dialyzed for one day and preserved at 4° C. LDL (400 μg) and aqueous copper sulfate solution (final concentration 5 μM) were added to bufferized Ham F-10 medium (2 ml, GIBCO, USA). DMSO or a solution (20 μl) of test compound dissolved in DMSO was added and the mixture was incubated at 37° C. for 24 hours. After the completion of the incubation, LDL peroxide in medium was allowed to develop color by thiobarbituric acid method and assayed as malondialdehyde. The activity of the test compound was expressed as malondialdehyde production inhibitory ratio (%), namely, the proportion of inhibition of production of malondialdehyde as compared to control.

The next assay has as its system plasma. In words: Plasma lipoperoxidation inhibitory effect (copper sulfate, malondialdehyde by thiobarbituric acid method). It is filed as biochemical, rabbit. To be noted: concentration 10^-5M; 37°C, 3 hours; malondialdehyde production inhibitory ratio. How it is done:
Plasma Lipoperoxidation Inhibitory Effect
The blood was taken from male Japanese white rabbits weighing 2-2.5 kg under anesthesia and heparinized plasma was separated by a conventional method. To the plasma (2.0 ml) was added DMSO or a solution (20 μl, final concentration 10^−5 M) of test compound dissolved in DMSO, and aqueous copper sulfate solution (final concentration 5 mM) was added immediately thereafter. The mixture was incubated at 37° C. for 3 hours. After the completion of the incubation, 20% trichloroacetic acid was added to stop the reaction. Then, the mixture was centrifuged at 4° C., 4,500 rpm for 15 minutes. The lipoperoxide in the supernatant thus obtained was assayed as malondialdehyde upon color development by thiobarbituric acid method. The activity of the test compound was expressed as malondialdehyde production inhibitory ratio (%), namely, the proportion of inhibition of production of malondialdehyde as compared to control.

As for `CCCCCCN1CCc2c(C)cc(C)c(NC(=O)NCCCC)c21` [Example 4, 1-butyl-3-(1-hexyl-4,6-dimethylindolin-7-yl)urea], the “Result of Exp. Ex. 1: ACAT inhibition” value in the assay on ACAT is given as 94.9 ** %. In addition, the “Result of Exp. Ex. 2: reduction of serum total cholesterol” value with Male Wister rats (dose 30 mg/kg/day) is 21.4 ** %. The “Result of Exp. Ex. 3: LDL peroxidation inhibition” value with LDL was determined as 59.5%. Also, the “Result of Exp. Ex. 4: plasma lipoperoxidation inhibition” value with plasma worked out at 92.0%.
As for `CCCCCCN1CCc2c(OC)cc(OC)c(NC(=O)C(C)(C)C)c21` [Example 7], the “Result of Exp. Ex. 1: ACAT inhibition” value in the assay with ACAT is given as 96.2 ** %. In addition, the “Result of Exp. Ex. 2: reduction of serum total cholesterol” value in the assay on Male Wister rats (dose 30 mg/kg/day) was 19.2 ** %. Besides, in the assay with LDL, the “Result of Exp. Ex. 3: LDL peroxidation inhibition” value was determined as 86.6%. The “Result of Exp. Ex. 4: plasma lipoperoxidation inhibition” value in the assay on plasma worked out at 86.4%.
Turning to `CCCCCCN1CCc2c1cc(C)c(NC(=O)NCCCC)c2C` [Example 1, 1-butyl-3-(1-hexyl-4,6-dimethylindolin-5-yl)urea], the “Result of Exp. Ex. 1: ACAT inhibition” value with ACAT is on record as 76.6 ** %. For the same compound, the “Result of Exp. Ex. 2: reduction of serum total cholesterol” value with Male Wister rats (dose 100 mg/kg/day) was 12.9 *** %. Further, the “Result of Exp. Ex. 3: LDL peroxidation inhibition” value in the assay with LDL is given as 99.2%. Besides, in the assay on plasma, the “Result of Exp. Ex. 4: plasma lipoperoxidation inhibition” value was determined as 94.3%.
For the compound `CC(C)(Sc1cc(C(C)(C)C)c(O)c(C(C)(C)C)c1)Sc1cc(C(C)(C)C)c(O)c(C(C)(C)C)c1` [Probucol, 4,4′-isopropylidenedithiobis(2,6-di-t-butylphenol), reference compound], the “Result of Exp. Ex. 1: ACAT inhibition” value in the assay with ACAT is 3.4 ** %. The “Result of Exp. Ex. 2: reduction of serum total cholesterol” value in the assay on Male Wister rats (dose 10 mg/kg/day) was 7.3 * %. Moreover, the “Result of Exp. Ex. 3: LDL peroxidation inhibition” value in the assay with LDL is 89.4%. Further, in the assay on plasma, the “Result of Exp. Ex. 4: plasma lipoperoxidation inhibition” value is on record as 87.5%.
`CCCCN1CCc2c(C)cc(C)c(NC(=O)C(C)(C)CCCC)c21` [Example 9]: the “Result of Exp. Ex. 1: ACAT inhibition” value in the assay with ACAT is reported as 81.3 ** %. Also, the “Result of Exp. Ex. 2: reduction of serum total cholesterol” value in the assay with Male Wister rats (dose 30 mg/kg/day) is on record as 51.3 ** %. Moreover, the “Result of Exp. Ex. 3: LDL peroxidation inhibition” value with LDL worked out at 93.7%. The “Result of Exp. Ex. 4: plasma lipoperoxidation inhibition” value in the assay with plasma was found to be 81.6%.
As to `CCCCCCN1CCc2c(C)cc(C)c(NC(=O)C(C)C)c21` [Example 17], in the assay on ACAT, the “Result of Exp. Ex. 1: ACAT inhibition” value is recorded as 96.7 ** %. Also, the “Result of Exp. Ex. 2: reduction of serum total cholesterol” value in the assay on Male Wister rats (dose 10 mg/kg/day) is 27.0 * %. In the assay with LDL, the “Result of Exp. Ex. 3: LDL peroxidation inhibition” value is listed as 89.6%. The “Result of Exp. Ex. 4: plasma lipoperoxidation inhibition” value with plasma was determined as 91.1%.
